Tested on: not given
Assay: not given
Conditions: not given

| melting point | Structure (SMILES) |
| --- | --- |
| 177 to 179 °C | O=C(Cn1c(-c2ccccc2)csc1=O)Nc1ccccc1 [Compound 2a, 2-(2-Oxo-4-phenylthiazol-3(2H)-yl)-N-phenylacetamide] |
| 213 to 216 °C | O=C(Cn1c(-c2ccccc2)csc1=O)Nc1c(Cl)cccc1Cl [Compound 2b, N-(2,6-dichlorophenyl)-2-(2-oxo-4-phenylthiazol-3(2H)-yl)acetamide] |
| 188 to 190 °C | CC(=O)c1sc(=O)n(CC(=O)Nc2ccccc2)c1C [Compound 2c, 2-(5-Acetyl-4-methyl-2-oxothiazol-3(2H)-yl)-N-phenylacetamide] |
| 209 to 211 °C | CC(=O)c1sc(=O)n(CC(=O)Nc2c(Cl)cccc2Cl)c1C [Compound 2d, 2-(5-Acetyl-4-methyl-2-oxothiazol-3(2H)-yl)-N-(2,6-dichlorophenyl)acetamide] |
| 188 to 191 °C | Cc1csc(=O)n1CC(=O)Nc1ccccc1 [Compound 2e, 2-(4-Methyl-2-oxothiazol-3(2H)-yl)-N-phenylacetamide] |
| 266 to 269 °C | Cc1csc(=O)n1CC(=O)Nc1c(Cl)cccc1Cl [Compound 2f, N-(2,6-dichlorophenyl)-2-(4-methyl-2-oxothiazol-3(2H)-yl)acetamide] |
| 118 to 121 °C | Cc1cccc(-n2c(-c3ccccc3)csc2=O)c1 [Compound 3a, 4-Phenyl-3-m-tolyl-thiazol-2(3H)-one] |
| 84 to 87 °C | O=c1scc(-c2ccccc2)n1-c1cccc(C(F)(F)F)c1 [Compound 3b, 4-Phenyl-3-[3-(trifluoromethyl)phenyl]thiazol-2(3H)-one] |
| 104 to 106 °C | CC(=O)c1sc(=O)n(-c2cccc(C)c2)c1C [Compound 3c, 5-Acetyl-4-methyl-3-m-tolylthiazol-2(3H)-one] |
| 147 to 150 °C | CC(=O)c1sc(=O)n(-c2cccc(C(F)(F)F)c2)c1C [Compound 3d, 5-Acetyl-4-methyl-3-[3-(trifluoromethyl)phenyl]thiazol-2(3H)-one] |
| 69 to 72 °C | Cc1cccc(-n2c(C)csc2=O)c1 [Compound 3e, 4-Methyl-3-m-tolyl-thiazol-2(3H)-one] |
| 121 to 123 °C | CC(=O)c1sc(=O)n(COC(=O)c2ccccc2)c1C [Compound 5b, (5-Acetyl-4-methyl-2-oxothiazol-3(2H)-yl)methyl benzoate] |

Tested on: HNE
Assay: not given
Conditions: HNE inhibitor, Fig. 1; cited from earlier work

| Structure (SMILES) | IC50 |
| --- | --- |
| Cc1c(-c2ccnn2C)cc(C(=O)NCc2ccc(S(C)(=O)=O)cn2)c(=O)n1-c1cccc(C(F)(F)F)c1 [Alvelestat] | 12 nM |

Target: T1, HNE (Calbiochem) (Homo sapiens, UniProt P08246)
T1 construct: purchased Calbiochem
T1 sequence (P08246 30-267): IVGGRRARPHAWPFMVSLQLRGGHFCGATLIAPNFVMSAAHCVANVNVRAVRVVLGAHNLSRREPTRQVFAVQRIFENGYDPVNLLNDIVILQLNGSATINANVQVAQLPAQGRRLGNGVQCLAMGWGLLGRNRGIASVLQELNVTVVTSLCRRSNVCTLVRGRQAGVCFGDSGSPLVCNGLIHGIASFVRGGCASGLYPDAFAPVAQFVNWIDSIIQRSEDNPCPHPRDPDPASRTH
Assay: HNE inhibition assay
Assay type: biochemical
Conditions: highest concentration tested 40 µM
Experimental: Compounds were dissolved in 100% DMSO at 5 mM stock concentrations. The final concentration of DMSO in the reactions was 1%, and this level of DMSO had no effect on enzyme activity. The HNE inhibition assay was performed in black flat-bottom 96-well microtiter plates. Briefly, a buffer solution containing 200 mM Tris–HCl, pH 7.5, 0.01% bovine serum albumin, and 0.05% Tween-20 and 20 mU/mL of HNE (Calbiochem) was added to wells containing different concentrations of each compound. The reaction was initiated by addition of 25 μM elastase substrate (N-methylsuccinyl-Ala–Ala-Pro-Val-7-amino-methyl-coumarin, Calbiochem) in a final reaction volume of 100 μL/well. Kinetic measurements were obtained every 30 s for 10 min at 25 °C using a Fluoroskan Ascent FL fluorescence microplate reader (Thermo Electron, MA) with excitation and emission wavelengths at 355 and 460 nm, respectively.

| HNE inhibitory activity | Structure (SMILES) |
| --- | --- |
| inactivity | O=C(OCn1c(-c2ccccc2)csc1=O)c1ccccc1 [Compound 5a, (2-Oxo-4-phenylthiazol-3(2H)-yl)methyl benzoate] |
| inactivity | CC(=O)c1sc(=O)n(COC(=O)c2ccccc2)c1C [Compound 5b, (5-Acetyl-4-methyl-2-oxothiazol-3(2H)-yl)methyl benzoate] |
| inactive | Cc1cccc(Cn2c(-c3ccccc3)csc2=O)c1 [Compound 5c, 3-(3-Methylbenzyl)-4-phenylthiazol-2(3H)-one] |
| inactivity | O=C(OCOc1nc(-c2ccccc2)cs1)c1ccccc1 [Compound 6a, (4-Phenylthiazol-2-yloxy)methyl benzoate] |
| inactivity | CC(=O)c1sc(OCOC(=O)c2ccccc2)nc1C [Compound 6b, (5-Acetyl-4-methylthiazol-2-yloxy)methyl benzoate] |
| inactive | Cc1cccc(COc2nc(-c3ccccc3)cs2)c1 [Compound 6c, 2-(3-Methylbenzyloxy)-4-phenylthiazole] |

From paper PMC5718994, “Synthesis and analytical characterization of new thiazol-2-(3H)-ones as human neutrophil elastase (HNE) inhibitors” (Chemistry Central Journal, 2017)
